Experimental findings from patent EP4778924A1 (Huons Co., Ltd., priority 2023, dated 2025) are described below.

Where a name gives a salt, the structure may show the parent alone. A value given as a limit tells only on which side of the number the result lay.

The target in one assay is T1, Proton Pump (H^+,K^+-ATPase) (Sus scrofa, UniProt P19156).
T1 construct: gastric vesicles were isolated from porcine stomachs; from tissue; host or cells: porcine stomach (gastric vesicles)
T1 sequence (P19156 2-1034 limits assumed): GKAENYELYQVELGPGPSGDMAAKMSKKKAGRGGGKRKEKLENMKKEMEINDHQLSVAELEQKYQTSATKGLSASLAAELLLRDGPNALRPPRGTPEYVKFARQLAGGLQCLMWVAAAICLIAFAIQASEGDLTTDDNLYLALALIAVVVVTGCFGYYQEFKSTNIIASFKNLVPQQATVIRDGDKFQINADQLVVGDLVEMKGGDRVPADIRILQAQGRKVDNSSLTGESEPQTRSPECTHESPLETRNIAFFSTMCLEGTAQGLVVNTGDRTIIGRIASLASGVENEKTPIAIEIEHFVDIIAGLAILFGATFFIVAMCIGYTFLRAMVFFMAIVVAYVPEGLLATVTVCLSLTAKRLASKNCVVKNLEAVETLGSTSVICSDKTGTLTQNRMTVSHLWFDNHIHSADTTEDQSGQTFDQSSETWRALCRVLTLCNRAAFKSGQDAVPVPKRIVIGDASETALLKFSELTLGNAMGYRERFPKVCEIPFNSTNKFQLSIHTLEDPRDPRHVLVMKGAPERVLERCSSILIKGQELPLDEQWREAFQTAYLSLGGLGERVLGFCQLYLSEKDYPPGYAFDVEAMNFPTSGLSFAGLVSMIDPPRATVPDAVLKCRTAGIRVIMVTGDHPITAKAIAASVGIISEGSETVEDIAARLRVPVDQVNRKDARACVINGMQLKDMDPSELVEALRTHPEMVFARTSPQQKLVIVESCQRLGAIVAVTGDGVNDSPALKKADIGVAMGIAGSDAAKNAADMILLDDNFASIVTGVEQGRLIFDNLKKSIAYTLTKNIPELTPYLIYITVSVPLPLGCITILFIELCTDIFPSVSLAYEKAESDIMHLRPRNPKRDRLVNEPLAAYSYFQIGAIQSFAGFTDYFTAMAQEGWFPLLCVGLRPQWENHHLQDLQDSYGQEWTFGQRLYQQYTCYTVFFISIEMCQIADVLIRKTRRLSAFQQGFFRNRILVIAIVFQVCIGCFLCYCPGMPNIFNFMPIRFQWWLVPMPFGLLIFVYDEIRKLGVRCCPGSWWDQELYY
T1 sequence (P18434 whole entry partner): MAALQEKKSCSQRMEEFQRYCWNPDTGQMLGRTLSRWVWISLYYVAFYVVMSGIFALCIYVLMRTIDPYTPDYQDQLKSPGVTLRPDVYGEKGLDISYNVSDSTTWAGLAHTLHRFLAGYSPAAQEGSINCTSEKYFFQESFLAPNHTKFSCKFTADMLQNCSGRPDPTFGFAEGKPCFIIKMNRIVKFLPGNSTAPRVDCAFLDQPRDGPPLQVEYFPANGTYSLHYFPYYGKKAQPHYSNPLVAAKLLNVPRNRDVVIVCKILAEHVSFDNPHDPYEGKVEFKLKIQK
In words: Inhibitory activity on proton pump (H+,K+-ATPase) activity, porcine gastric vesicles, malachite green readout. The format is biochemical. The note with it: porcine gastric vesicles, pH 6.5, 8 mM KCl, 0.2 mM ATP. The procedure: Specifically, gastric vesicles were isolated from porcine stomachs, and the protein content of the vesicles was quantified using a BSA kit (Bio-Rad, 5000205). All reactions were performed in 96-well plates with a reaction volume of […] containing 100 ng of vesicles. 10 mM valinomycin and the test compound were added to reaction buffer (50 mM Tris-HEPES, 5 mM MgCl2, 8 mM KCl, pH 6.5) containing porcine gastric vesicles at various concentrations, and the mixture was incubated at 37°C for 30 minutes. DMSO or test compounds at different concentrations were added after diluting them to a final DMSO concentration of 0.1%. 0.2 mM adenosine triphosphate (ATP) was then added to the reaction buffer and incubated at 37°C for 20 minutes. The reaction was stopped with 0.2% Tween 20, followed by the addition of malachite green (Sigma Aldrich, MAK307) and incubation at room temperature for 30 minutes. The optical density (OD) value was measured at 620 nm using a microplate reader (Spectramax M5e, Molecular devices). The percent (%) inhibition was derived from the OD values of the control group and various concentrations of the test compounds. The IC50 of the test compounds was analyzed using nonlinear regression using the GraphPad Prism8 program using the % inhibition value at each concentration.
One may read the IC50 as the concentration needed to halve the response being measured. A higher IC50 goes with weaker potency in that assay. On to `Cc1cccc(C)c1CNc1cc(NC(=O)NCCC(=O)O)cn2c(C)c(C)nc12` [Example 71, 3-(3-(8-((2,6-dimethylbenzyl)amino)-2,3-dimethylimidazo[1,2-a]pyridin-6-yl)ureido)propionic acid citrate], for which the IC50 was in the range of 100 to 500 nM. Same read-out and setting: in the case of `Cc1cccc(C)c1CNc1cc(N2C(=O)NCCNC2=O)cn2c(C)c(C)nc12` [Example 72, 3-(8-((2,6-dimethylbenzyl)amino)-2,3-dimethylimidazo[1,2-a]pyridin-6-yl)-1,3,5-triazepane-2,4-dione] it was 100 to 500 nM; in that of `CC(=O)NCCNC(=O)Nc1cc(NCc2c(C)cccc2C)c2nc(C)c(C)n2c1` [Example 73, N-(2-(3-(8-((2,6-dimethylbenzyl)amino)-2,3-dimethylimidazo[1,2-a]pyridin-6-yl)ureido)ethyl)acetamide], 100 to 500 nM; in that of `Cc1cccc(C)c1CNc1cc(NC(=O)NCC2CCOC2)cn2c(C)c(C)nc12` (stereo not drawn) [Example 74, 1-(8-((2,6-dimethylbenzyl)amino)-2,3-dimethylimidazo[1,2-a]pyridin-6-yl)-3-((tetrohydrofuran-3-yl)methyl)urea hydrochloride], 50 to 100 nM.

On to `Cc1cccc(C)c1CNc1cc(NC(=O)[C@@]2(C)CCN2)cn2c(C)c(C)nc12` [Example 75, (R)-N-(8-((2,6-dimethylbenzyl)amino)-2,3-dimethylimidazo[1,2-a]pyridin-6-yl)-2-methylazetidine-2-carboxamide hydrochloride], for which the IC50 lay in the range of 100 to 500 nM. Consider `Cc1cccc(C)c1CNc1cc(NC(=O)C[C@H]2CCN2)cn2c(C)c(C)nc12` [Example 76, (R)-2-(azetidin-2-yl)-N-(8-((2,6-dimethylbenzyl)amino)-2,3-dimethylimidazo[1,2-a]pyridin-6-yl)acetamide hydrochloride], for which the IC50 fell in the range of 50 to 100 nM. Molecule `Cc1cccc(C)c1CNc1cc(NC(=O)N2CC(c3ccccc3)C2)cn2c(C)c(C)nc12.O=C(O)CC(O)(CC(=O)O)C(=O)O` [Example 77, N-(8-((2,6-dimethylbenzyl)amino)-2,3-dimethylimidazo[1,2-a]pyridin-6-yl)-3-phenylazetidine-1-carboxamide citrate] yielded an IC50 below 50 nM. `Cc1cccc(C)c1CNc1cc(NC(=O)N[C@H]2CCc3ccccc32)cn2c(C)c(C)nc12` [Example 78, (S)-1-(2,3-dihydro-1H-inden-1-yl)-3-(8-((2,6-dimethylbenzyl)amino)-2,3-dimethylimidazo[1,2-a]pyridin-6-yl)urea hydrochloride]: the IC50 was 100 to 500 nM. Same read-out and setting: the result for `CNC(=O)N1CC[C@H]1C(=O)Nc1cc(NCc2c(C)cccc2C)c2nc(C)c(C)n2c1` [Example 79, (S)-N2-(8-((2,6-dimethylbenzyl)amino)-2,3-dimethylimidazo[1,2-a]pyridin-6-yl)-N1-methylazetidine-1,2-dicarboxamide] reads 100 to 500 nM.

As to `Cc1cccc(C)c1CNc1cc(NC(=O)N[C@@H]2CCc3ccccc32)cn2c(C)c(C)nc12` [Example 80, (R)-1-(2,3-dihydro-1H-inden-1-yl)-3-(8-((2,6-dimethylbenzyl)amino)-2,3-dimethylimidazo[1,2-a]pyridin-6-yl)urea hydrochloride], the IC50 was above 500 nM.

Take `Cc1cccc(C)c1CNc1cc(NC(=O)CN2CCC2=O)cn2c(C)c(C)nc12` [Example 81, N-(8-((2,6-dimethylbenzyl)amino)-2,3-dimethylimidazo [1,2-a]pyridin-6-yl)-2-(2-oxoazetidin-1-yl)acetamide]: the IC50 was in the range of 50 to 100 nM. As for `Cc1cccc(C)c1CNc1cc(NC(=O)N2CCC(c3ccccc3)CC2)cn2c(C)c(C)nc12` [Example 82, N-(8-((2,6-dimethylbenzyl)amino)-2,3-dimethylimidazo[1,2-a]pyridin-6-yl)-4-phenylpiperidine-1-carboxamide], the IC50 fell in the range of 100 to 500 nM. `Cc1cccc(C)c1CNc1cc(NC(=O)N2CCCC(c3ccccc3)C2)cn2c(C)c(C)nc12` (stereo not drawn) [Example 83, N-(8-((2,6-dimethylbenzyll)amino)-2,3-dimethylimidazo[1,2-a]pyridin-6-yl)-3-phenylpiperidine-1-carboxamide] yielded an IC50 of 100 to 500 nM.

`Cc1cccc(C)c1CNc1cc(NC(=O)N2CCC(c3ccccc3)C2)cn2c(C)c(C)nc12` (stereo not drawn) [Example 84, N-(8-((2,6-dimethylbenzyl)amino)-2,3-dimethylimidazo[1,2-a]pyridin-6-yl)-3-phenylpyrrolidine-1-carboxamide] registered an IC50 of 100 to 500 nM. As to `Cc1cccc(C)c1CNc1cc(NC(=O)[C@H]2CNCCN2)cn2c(C)c(C)nc12` [Example 85, (R)-N-(8-((2,6-dimethylbenzyl)amino)-2,3-dimethylimidazo[1,2-a]pyridin-6-yl)piperazine-2-carboxamide hydrochloride], the IC50 was 100 to 500 nM. Molecule `Cc1cccc(C)c1CNc1cc(NC(=O)N(C)CCN)cn2c(C)c(C)nc12` [Example 87, 1-(2-aminoethyl)-3-(8-((2,6-dimethylbenzyl)amino)-2,3-dimethylimidazo[1,2-a]pyridin-6-yl)-1-methylurea hydrochloride] came in with an IC50 below 50 nM.

Turning to `Cc1cccc(C)c1CNc1cc(NC(=O)NCCO)cn2c(C)c(C)nc12` [Example 88, 1-(8-((2,6-dimethylbenzyl)amino)-2,3-dimethylimidazo[1,2-a]pyridin-6-yl)-3-(2-hydroxyethyl)urea citrate], the IC50 is below 50 nM. `Cc1cccc(C)c1CNc1cc(NC(=O)[C@@H]2CCNC2)cn2c(C)c(C)nc12` [Example 89, (R)-N-(8-((2,6-dimethylbenzyl)amino)-2,3-dimethylimidazo[1,2-a]pyridin-6-yl)pyrrolidine-3-carboxamide hydrochloride] came in with an IC50 of 50 to 100 nM. Still for that read-out and setting: in the case of `Cc1cccc(C)c1CNc1cc(NC(=O)[C@H]2CCCCN2)cn2c(C)c(C)nc12` [Example 90, (R)-N-(8-((2,6-dimethylbenzyl)amino)-2,3-dimethylimidazo[1,2-a]pyridin-6-yl)piperidine-2-carboxamide hydrochloride] it was 50 to 100 nM; in that of `Cc1cccc(C)c1CNc1cc(NC(=O)C[C@H]2CCCN2)cn2c(C)c(C)nc12` [Example 91, (R)-N-(8-((2,6-dimethylbenzyl)amino)-2,3-dimethylimidazo[1,2-a]pyridin-6-yl)-2-(pyrrolidin-2-yl)acetamide hydrochloride], 50 to 100 nM.

Regarding `Cc1cccc(C)c1CNc1cc(NC(C)C)cn2c(C)c(C)nc12` [Example 92, N^8-(2,6-dimethylbenzyl)-N^6-isopropyl-2,3-dimethylimidazo [1,2-a] pyridine-6,8-diamine], the IC50 was above 500 nM. As for `Cc1cccc(C)c1CNc1cc(NC(=O)C[C@@H]2CCCN2)cn2c(C)c(C)nc12` [Example 93, (S)-N-(8-((2,6-dimethylbenzyl)amino)-2,3-dimethylimidazo[1,2-a]pyridin-6-yl)-2-(pyrrolidin-2-yl)acetamide hydrochloride], the IC50 was below 50 nM.

On to `Cc1cccc(C)c1CNc1cc(NC(=O)[C@@H]2CNCCN2)cn2c(C)c(C)nc12` [Example 94, (S)-N-(8-((2,6-dimethylbenzyl)amino)-2,3-dimethylimidazo[1,2-a]pyridin-6-yl)piperazine-2-carboxamide hydrochloride], for which the IC50 was below 50 nM.

Staying with this assay, now noted: result in words.
As to `Cc1cccc(C)c1CNc1cc(NC(=O)N2CC(c3ccccc3)C2)cn2c(C)c(C)nc12.O=C(O)CC(O)(CC(=O)O)C(=O)O` [Example 77, N-(8-((2,6-dimethylbenzyl)amino)-2,3-dimethylimidazo[1,2-a]pyridin-6-yl)-3-phenylazetidine-1-carboxamide citrate], the “inhibitory activity against proton pump activity” value is given as “excellent inhibitory properties”.
